Tests used:
circulating FGF21 levels = test: oral fructose load versus oral glucose load, circulating FGF21 in human subjects; format: in vivo; settings: two hours after ingestion of 75 grams of fructose, lean healthy subjects
Source text: FIGS. 2A-2B show plasma FGF21 levels: FIG. 2A) following ingestion of 75 grams glucose (n=8) and FIG. 2B) Plasma FGF21 levels following ingestion of 75 grams fructose in human subjects (n=10).
To test whether fructose ingestion can acutely regulate circulating FGF21 in human subjects, we compared the effects of administering a 75 gram oral glucose load versus a 75 gram oral fructose load on circulating FGF21 levels in lean healthy subjects. Ingestion of glucose has no effect on FGF21 levels (FIG. 2A and ^14). In contrast, circulating FGF21 levels increase ˜4-fold two hours after ingestion of 75 grams of fructose (FIG. 2B). Thus oral fructose ingestion, but not glucose ingestion acutely and robustly increases circulating FGF21 levels. To our knowledge FGF21 is the only known measurable circulating biomarker that specifically assesses an individual's acute metabolic response to fructose ingestion.

[1] = tested on: hepatic ChREBP-β, ChREBP transcriptional targets and circulating FGF21; test: mice fed chow, 60% dextrose or 60% fructose diets for 7 weeks: hepatic mRNA expression and circulating FGF21; format: in vivo; settings: 7 weeks of 60% diet
Source text: FIGS. 1A-1C are bar graphs of hepatic mRNA expression (FIG. 1A, 1B) and circulating (FIG. 1C) FGF21 levels in 15-week-old mice fed chow, 60% dextrose, or 60% fructose diets for 7 weeks, sacrificed in the ad lib fed state. * P<0.05 compared to all other groups. n=5-7 per group.
The FGF21 gene contains a ChREBP binding site in its promoter and exposure of primary hepatocytes to high glucose concentrations increases FGF21 expression in a ChREBP dependent manner^37,38. To determine whether ChREBP might regulate circulating FGF21 levels we fed mice chow, 60% dextrose, or 60% fructose diets. […] Thus, we hypothesized that the increase in circulating FGF21 levels associated with features of the metabolic syndrome might be due to activation of hepatic ChREBP and that fructose consumption might be important for this.

[2] = fructose: at first pass; cited from earlier work

O=C(CO)[C@@H](O)[C@H](O)[C@H](O)CO [fructose]
increase of circulating FGF21 levels (circulating FGF21 levels): ~4 fold | circulating FGF21 levels [1]: highest levels | effect of fructose on hepatic ChREBP-β expression relative to that of dextrose [1]: ~3 fold | expression of ChREBP transcriptional targets (Pklr, Fasn, FGF21) in liver [1]: greater increase | hepatic expression of ChREBP-β compared to chow ([1]; ad lib fed state): markedly increases | share of an oral load taken up / extracted by the liver [2]: ~100%

Reference: US10132816B2, “Measurement of FGF21 as a biomarker of fructose metabolism” (Beth Israel Deaconess Medical Center, Inc., priority 2013, dated 2018)
